Assay results taken from patent US20250171437A1 (Agios Pharmaceuticals,Inc., priority 2022, published 2025).

Target: T1, human PAH with the R408W mutation (A375 R408W cells) (Homo sapiens, UniProt P00439, R408W)
T1 construct: expressed in transfected cells
T1 sequence (P00439 1-452 R408W): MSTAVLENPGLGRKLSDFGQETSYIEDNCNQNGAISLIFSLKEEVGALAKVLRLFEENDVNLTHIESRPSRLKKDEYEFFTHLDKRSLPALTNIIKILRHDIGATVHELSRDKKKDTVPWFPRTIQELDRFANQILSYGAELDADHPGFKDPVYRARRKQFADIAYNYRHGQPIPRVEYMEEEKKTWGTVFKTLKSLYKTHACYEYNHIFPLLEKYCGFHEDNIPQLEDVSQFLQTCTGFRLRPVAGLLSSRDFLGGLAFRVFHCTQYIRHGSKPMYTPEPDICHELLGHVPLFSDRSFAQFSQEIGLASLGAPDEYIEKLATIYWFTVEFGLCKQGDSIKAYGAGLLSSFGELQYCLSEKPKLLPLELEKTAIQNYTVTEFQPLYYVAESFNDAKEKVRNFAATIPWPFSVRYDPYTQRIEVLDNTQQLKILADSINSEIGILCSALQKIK
Experiment: Cell Based Phenylalanine Flux Assay
Conditions: 24 hrs with compound, then 20 μM sepiapterin and 800 μM 13C9,15N-Phenylalanine for 4 hours, 13C-Tyrosine by LC-MS, average where tested multiple times
Outline: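 AC50 is derived from LC-MS of 13C-tyrosine in the media after a 4 h pulse of 800 μM 13C9,15N-phenylalanine plus 20 μM sepiapterin. The A375 R408W PAH cells had received duplicate 10-point, 2-fold compound dilutions (0.5% DMSO) for 24 h beforehand.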

[1] = A375 cells expressing R408W PAH

Row | Structure (SMILES) | AC50 [1] [nM] | AC50 (A375 R408W cells) [nM]
1 | O=C(CCc1cnco1)N1CCc2[nH]cnc2C1c1nc2ccc(F)cc2o1 (stereo not shown) | 1000 to 5000 | 
2 | O=C(c1oc(N2CCOCC2)nc1C(F)F)N1CCc2[nH]cnc2[C@@H]1c1nc2cc(F)ccc2o1 [Example 414, (R)-(4-(difluoromethyl)-2-morpholinooxazol-5-yl)(4-(5-fluorobenzo[d]oxazol-2-yl)-6,7-dihydro-1H-imidazo[4,5-c]pyridin-5(4H)-yl)methanone] |  | 1000 to 5000
3 | Cn1cc(-c2nnc(C(=O)N3CCc4[nH]cnc4[C@H]3c3nc4cc(F)ccc4o3)o2)cn1 [Example 67, (S)-(4-(5-fluorobenzo[d]oxazol-2-yl)-6,7-dihydro-1H-imidazo[4,5-c]pyridin-5(4H)-yl)(5-(1-methyl-1H-pyrazol-4-yl)-1,3,4-oxadiazol-2-yl)methanone] |  | 1000 to 5000
4 | O=C(CCc1cncs1)N1CCc2[nH]cnc2C1c1nc2c(F)cccc2o1 (stereo not shown) | ≥ 5000 | 
5 | O=C(c1ocnc1C(F)F)N1Cc2[nH]cnc2[C@H]1c1nc2ccccc2o1 [Example 921, (S)-(4-(benzo[d]oxazol-2-yl)-4,6-dihydropyrrolo[3,4-d]imidazol-5(1H)-yl)(4-(difluoromethyl)oxazol-5-yl)methanone] |  | 1000 to 5000
6 | O=C(c1ocnc1C(F)(F)F)N1CCc2[nH]cnc2[C@H]1c1nc2c(F)cccc2o1 [Example 167, (S)-(4-(4-fluorobenzo[d]oxazol-2-yl)-6,7-dihydro-1H-imidazo[4,5-c]pyridin-5(4H)-yl)(4-(trifluoromethyl)oxazol-5-yl)methanone] |  | ≤ 500
7 | O=C(c1ocnc1C(F)F)N1CCc2[nH]cnc2[C@H]1c1nc2ccc(Br)cc2o1 [Example 145, (S)-(4-(6-bromobenzo[d]oxazol-2-yl)-6,7-dihydro-1H-imidazo[4,5-c]pyridin-5(4H)-yl)(4-(difluoromethyl)oxazol-5-yl)methanone] |  | ≤ 500
8 | Nc1cn2ncc(C(=O)N3CCc4[nH]cnc4[C@@H]3c3nc4cc(F)ccc4o3)c2cc1Cl [Example 178, (R)-(6-amino-5-chloropyrazolo[1,5-a]pyridin-3-yl)(4-(5-fluorobenzo[d]oxazol-2-yl)-6,7-dihydro-1H-imidazo[4,5-c]pyridin-5(4H)-yl)methanone] |  | ≥ 5000
9 | CNc1cn2ncc(C(=O)N3CCc4[nH]cnc4[C@@H]3c3nc4cc(F)ccc4o3)c2cc1Cl [Example 206, (R)-(5-chloro-6-(methylamino)pyrazolo[1,5-a]pyridin-3-yl)(4-(5-fluorobenzo[d]oxazol-2-yl)-6,7-dihydro-1H-imidazo[4,5-c]pyridin-5(4H)-yl)methanone] |  | 1000 to 5000
10 | COCc1ncc(C(=O)N2CCc3[nH]cnc3C2c2nc3cc(F)ccc3o2)o1 (stereo not shown) | 1000 to 5000 | 
11 | Cc1ccc2oc([C@@H]3c4nc[nH]c4CCN3C(=O)c3nnc(-c4cnn(C(F)F)c4)o3)nc2c1 [Example 673, (S)-(5-(1-(difluoromethyl)-1H-pyrazol-4-yl)-1,3,4-oxadiazol-2-yl)(4-(5-methylbenzo[d]oxazol-2-yl)-6,7-dihydro-1H-imidazo[4,5-c]pyridin-5(4H)-yl)methanone] |  | ≤ 500
12 | CC(C)(O)c1nc(Cl)c(C(=O)N2CCc3[nH]cnc3[C@H]2c2nc3c(F)cccc3o2)o1 [Example 274, (S)-(4-chloro-2-(2-hydroxypropan-2-yl)oxazol-5-yl)(4-(4-fluorobenzo[d]oxazol-2-yl)-6,7-dihydro-1H-imidazo[4,5-c]pyridin-5(4H)-yl)methanone] |  | 500 to 1000
13 | Cc1nc(N2CCC(F)CC2)oc1C(=O)N1CCc2[nH]cnc2C1c1nc2cc(F)ccc2o1 (stereo not shown) | ≥ 5000 | 
14 | O=C(c1ocnc1C(F)(F)F)N1CCc2[nH]cnc2[C@@H]1c1nc2ccc(F)cc2o1 [Example 162, (R)-(4-(6-fluorobenzo[d]oxazol-2-yl)-6,7-dihydro-1H-imidazo[4,5-c]pyridin-5(4H)-yl)(4-(trifluoromethyl)oxazol-5-yl)methanone] |  | 1000 to 5000
15 | O=C(c1nnc(-c2ccccn2)o1)N1CCc2[nH]cnc2[C@@H]1c1nc2cccc(C(F)(F)F)c2o1 [Example 837, (R)-(5-(pyridin-2-yl)-1,3,4-oxadiazol-2-yl)(4-(7-(trifluoromethyl)benzo[d]oxazol-2-yl)-6,7-dihydro-1H-imidazo[4,5-c]pyridin-5(4H)-yl)methanone] |  | 500 to 1000
16 | Cc1ccc2oc(C3c4nc[nH]c4CCN3C(=O)c3nnc(C(C)(C)O)o3)nc2c1 (stereo not shown) | ≥ 5000 | 
17 | Cn1cnnc1C(=O)N1CCc2[nH]cnc2C1c1nc2cc(F)ccc2o1 (stereo not shown) | 1000 to 5000 | 

Row | Structure (SMILES) | AC50 [1] [nM] | AC50 (A375 R408W cells) [nM]
18 | COc1ccc2c(C(=O)N3CCc4[nH]cnc4[C@@H]3c3nc4cc(F)ccc4o3)cnn2c1 [Example 74, (R)-(4-(5-fluorobenzo[d]oxazol-2-yl)-6,7-dihydro-1H-imidazo[4,5-c]pyridin-5(4H)-yl)(6-methoxypyrazolo[1,5-a]pyridin-3-yl)methanone] |  | ≥ 5000
19 | O=C(c1cnco1)N1CCc2[nH]cnc2C1c1nc2ccc(Br)cc2o1 (stereo not shown) | ≥ 5000 | 
20 | CC(F)(F)c1ncoc1C(=O)N1CCc2[nH]cnc2[C@@H]1c1nc2c(F)cccc2o1 [Example 652, (R)-(4-(1,1-difluoroethyl)oxazol-5-yl)(4-(4-fluorobenzo[d]oxazol-2-yl)-6,7-dihydro-1H-imidazo[4,5-c]pyridin-5(4H)-yl)methanone] |  | 1000 to 5000
21 | Cn1nc(C2CC2)nc1C(=O)N1CCc2[nH]cnc2[C@@H]1c1nc2cccc(F)c2o1 [Example 498, (R)-(3-cyclopropyl-1-methyl-1H-1,2,4-triazol-5-yl)(4-(7-fluorobenzo[d]oxazol-2-yl)-6,7-dihydro-1H-imidazo[4,5-c]pyridin-5(4H)-yl)methanone] |  | 1000 to 5000
22 | O=C(c1oc(C2(O)CCC2)nc1C(F)(F)F)N1CCc2[nH]cnc2[C@@H]1c1nc2cc(F)ccc2o1 [Example 586, (R)-(4-(5-fluorobenzo[d]oxazol-2-yl)-6,7-dihydro-1H-imidazo[4,5-c]pyridin-5(4H)-yl)(2-(1-hydroxycyclobutyl)-4-(trifluoromethyl)oxazol-5-yl)methanone] |  | 1000 to 5000
23 | Cn1cncc1-c1nnc(C(=O)N2CCc3[nH]cnc3C2c2nc3c(F)ccc(F)c3o2)o1 (stereo not shown) | 1000 to 5000 | 
24 | Cc1cccc2nc([C@@H]3c4nc[nH]c4CCN3C(=O)c3nnc(-c4cnn(C)c4)o3)oc12 [Example 565, (S)-(5-(1-methyl-1H-pyrazol-4-yl)-1,3,4-oxadiazol-2-yl)(4-(7-methylbenzo[d]oxazol-2-yl)-6,7-dihydro-1H-imidazo[4,5-c]pyridin-5(4H)-yl)methanone] |  | 500 to 1000
25 | Cn1nc(C(F)F)cc1C(=O)N1CCc2[nH]cnc2C1c1nc2cc(F)ccc2o1 (stereo not shown) | 1000 to 5000 | 
26 | O=C(c1nnc(-c2ccccn2)o1)N1CCc2[nH]cnc2[C@@H]1c1nc2c(F)cccc2o1 [Example 334, (R)-(4-(4-fluorobenzo[d]oxazol-2-yl)-6,7-dihydro-1H-imidazo[4,5-c]pyridin-5(4H)-yl)(5-(pyridin-2-yl)-1,3,4-oxadiazol-2-yl)methanone] |  | 1000 to 5000
27 | O=C(c1ocnc1C(F)F)N1CC2(CC2)c2[nH]cnc2[C@@H]1c1nc2cccc(F)c2o1 [Example 912, (R)-(4-(difluoromethyl)oxazol-5-yl)(4′-(7-fluorobenzo[d]oxazol-2-yl)spiro[cyclopropane-1,7′-imidazo[4,5-c]pyridin]-5′(1′H,4′H,6′H)-yl)methanone] |  | 500 to 1000
28 | O=C(c1ocnc1C(F)F)N1CCc2[nH]cnc2[C@H]1c1nc2cccc(Cl)c2o1 [Example 425, (S)-(4-(7-chlorobenzo[d]oxazol-2-yl)-6,7-dihydro-1H-imidazo[4,5-c]pyridin-5(4H)-yl)(4-(difluoromethyl)oxazol-5-yl)methanone] |  | ≤ 500
29 | Cc1ccc2oc([C@H]3c4nc[nH]c4CCN3C(=O)c3oc(C(C)(C)O)nc3C)nc2c1 [Example 332, (R)-(2-(2-hydroxypropan-2-yl)-4-methyloxazol-5-yl)(4-(5-methylbenzo[d]oxazol-2-yl)-6,7-dihydro-1H-imidazo[4,5-c]pyridin-5(4H)-yl)methanone] |  | 1000 to 5000
30 | COc1cccc2oc(C3c4nc[nH]c4CCN3C(=O)c3cnc(C(C)(C)O)o3)nc12 (stereo not shown) | 1000 to 5000 | 
31 | O=C(c1cnn2cc(N3CCOCC3)ccc12)N1CCc2[nH]cnc2[C@@H]1c1nc2c(F)cccc2o1 [Example 503, (R)-(4-(4-fluorobenzo[d]oxazol-2-yl)-6,7-dihydro-1H-imidazo[4,5-c]pyridin-5(4H)-yl)(6-morpholinopyrazolo[1,5-a]pyridin-3-yl)methanone] |  | ≥ 5000
32 | Cc1cccc2nc(C3c4nc[nH]c4CCN3C(=O)c3cc(C(C)(C)C)nn3C)oc12 (stereo not shown) | 1000 to 5000 | 
33 | C[C@@H](O)c1nc(C(F)F)c(C(=O)N2CCc3[nH]cnc3[C@H]2c2nc3cccc(F)c3o2)o1 [Example 245, (4-(difluoromethyl)-2-((R)-1-hydroxyethyl)oxazol-5-yl)((S)-4-(7-fluorobenzo[d]oxazol-2-yl)-6,7-dihydro-1H-imidazo[4,5-c]pyridin-5(4H)-yl)methanone] |  | ≤ 500
34 | O=C(c1nnc(-c2cnn(C(F)F)c2)o1)N1CCc2[nH]cnc2[C@@H]1c1nc2c(F)ccc(F)c2o1 [Example 802, (R)-(4-(4,7-difluorobenzo[d]oxazol-2-yl)-6,7-dihydro-1H-imidazo[4,5-c]pyridin-5(4H)-yl)(5-(1-(difluoromethyl)-1H-pyrazol-4-yl)-1,3,4-oxadiazol-2-yl)methanone] |  | 500 to 1000
